Data: patent US12215354B2, “Differentiation of human embryonic stem cells into single hormonal insulin positive cells” (Janssen Biotech, Inc., priority 2011, dated 2025)

Tested on: human embryonic stem cell line H1
Experiment: Immune staining for insulin, glucagon and somatostatin hormones at end of stage 5 (Example 11)
Assay type: cell-based
Details: percentage of the entire hormone count, 0.25 mM ascorbic acid
Procedure: Cells of the human embryonic stem cell line H1 at various passages (passage 40 to passage 52) were seeded as single cells at a density of 100,000 cells/cm^2 on MATRIGEL™ (1:30 dilution) coated dishes in mTesr™1 media and 10 μM of Y27632. Forty eight hours post seeding, cultures were differentiated into pancreatic endocrine lineage as follows: • a. Stage 1 (Definitive Endoderm (DE)−3 days): Prior to start of DE, the cultures were washed and incubated with incomplete PBS (no Mg or Ca) for 30 seconds followed by addition of the stage 1 media. Human embryonic stem cells cultured as single cells on MATRIGEL™-coated dishes were treated with MCDB-131 medium supplemented with 0.1% fatty acid-free BSA, 0.0012 g/ml sodium bicarbonate, 1× GLUTAMAX™, 5 mM D-Glucose, 100 ng/ml GDF8, and 1 μM MCX compound (GSK3B inhibitor) for one day. Cells were then treated with MCDB-131 medium supplemented with 0.1% fatty acid-free BSA, 0.0012 g/ml sodium bicarbonate, 1× GLUTAMAX™, 5 mM glucose, 100 ng/ml GDF8, and 100 nM MCX compound for day two, followed by an additional day in MCDB-131 medium supplemented with 0.1% fatty acid-free BSA, 0.0012 g/ml sodium bicarbonate, 1× GLUTAMAX™, 5 mM Glucose, and 100 ng/ml GDF8. • b. Stage 2 (Primitive gut tube−2 days): Stage 1 cells were treated with MCDB-131 medium supplemented with 0.1% fatty acid-free BSA, 0.0012 g/ml sodium bicarbonate, 1× GLUTAMAX™, 5 mM D-Glucose, and 25 ng/ml FGF7 for two days. • c. Stage 3 (Foregut−2 days): Stage 2 cells were treated with MCDB-131 medium supplemented with 1:200 dilution of ITS-X, 2.5 mM Glucose, 1× GLUTAMAX™, 0.0015 g/ml sodium bicarbonate, 2% fatty acid-free BSA, 10 ng/ml Activin A, 25 ng/ml FGF7, 0.25 μM SANT-1, 1 μM RA, 200 nM TPB (PKC activator), 100 nM LDN-193189 (BMP receptor inhibitor) for one day. Cells were then treated with MCDB-131 medium supplemented with 1:200 dilution of ITS-X, 2.5 mM Glucose, 1× GLUTAMAX™, 0.0015 g/ml sodium bicarbonate, 2% fatty acid-free BSA, 10 ng/ml Activin A, 25 ng/ml FGF7, 0.25 μM SANT-1, 1 μM RA, 200 nM TPB (PKC activator), 10 nM LDN-193189 for an additional day. […]

**Q.** What does the source list for `O=C1O[C@H]([C@@H](O)CO)C(O)=C1O` [ascorbic acid]?
**A.** % Polyhormonal: 36%; % glucagon + plus % somatostatin+: 44%; % single hormonal Insulin+: 55%
